Numbers after ± are expanded uncertainties.

One may read the speed of sound as the propagation velocity of pressure waves in the medium. For orientation: mass density means mass per unit of volume.

For data set [1] the following is noted: 101 kPa, Liquid; for speed of sound: Single path-length method; for mass density: Vibrating tube method.
The nature of data set [2]: xn = mol fraction of the nth substance listed. Particulars: 101 kPa, Liquid, x2 = 0; for speed of sound: Single path-length method; for mass density: Vibrating tube method.

On to `C[N+]1(CC2CO2)CCCC1=O.O=C([O-])c1ccccc1O` (stereo not given) [1-methyl-1-(oxiran-2-ylmethyl)-2-oxopyrrolidinium salicylate], for which the speed of sound is reported as 1634.2 ± 6.3 m/s in data set [1] (293.15 K); 1614.5 ± 6.3 m/s in data set [1] (298.15 K); 1595.7 ± 6.3 m/s in data set [1] (303.15 K); 1577.6 ± 6.3 m/s in data set [1] (308.15 K); 1559.5 ± 6.3 m/s in data set [1] (313.15 K). Also, the mass density in data set [1] (293.15 K) turned out to be 1209.8 ± 3.2 kg/m3; in data set [1] (298.15 K) it was 1205.5 ± 3.2 kg/m3; in data set [1] (303.15 K) it was 1201.3 ± 3.2 kg/m3; in data set [1] (308.15 K), 1197.2 ± 3.2 kg/m3; in data set [1] (313.15 K), 1193 ± 3.2 kg/m3.
With `CC(=O)O` [acetic acid], the speed of sound in data set [1] (293.15 K) was 1159.3 ± 6.1 m/s; in data set [1] (298.15 K), 1142.8 ± 6.1 m/s; in data set [1] (303.15 K) it was 1126.3 ± 6.1 m/s; in data set [1] (308.15 K), 1109.6 ± 6.1 m/s; in data set [1] (313.15 K) it was 1094.8 ± 6.1 m/s. Besides, the mass density is listed as 1052.5 ± 3 kg/m3 in data set [1] (293.15 K); 1046.9 ± 3 kg/m3 in data set [1] (298.15 K); 1041.4 ± 3 kg/m3 in data set [1] (303.15 K); 1035.8 ± 3 kg/m3 in data set [1] (308.15 K); 1030 ± 3 kg/m3 in data set [1] (313.15 K).
For `CC(=O)O` [acetic acid] + C[N+]1(CC2CO2)CCCC1=O.O=C([O-])c1ccccc1O, the speed of sound in data set [2] (293.15 K) turned out to be 1159.3 ± 6.1 m/s; in data set [2] (298.15 K), 1142.8 ± 6.1 m/s; in data set [2] (303.15 K) it was 1126.3 ± 6.1 m/s; in data set [2] (308.15 K), 1109.6 ± 6.1 m/s; in data set [2] (313.15 K), 1094.8 ± 6.1 m/s. Further, the mass density in data set [2] (293.15 K) worked out at 1052.5 ± 3 kg/m3; in data set [2] (298.15 K), 1046.9 ± 3 kg/m3; in data set [2] (303.15 K), 1041.4 ± 3 kg/m3; in data set [2] (308.15 K), 1035.8 ± 3 kg/m3; in data set [2] (313.15 K) it was 1030 ± 3 kg/m3.
As for `CCC(=O)O` [propanoic acid], the speed of sound in data set [1] (293.15 K) is given as 1166.3 ± 6.1 m/s; in data set [1] (298.15 K) it was 1148.1 ± 6.1 m/s; in data set [1] (303.15 K), 1129.7 ± 6.1 m/s; in data set [1] (308.15 K), 1111.3 ± 6.1 m/s; in data set [1] (313.15 K), 1092.8 ± 6.1 m/s. In addition, the mass density in data set [1] (293.15 K) was 993.8 ± 3 kg/m3; in data set [1] (298.15 K), 988.4 ± 3 kg/m3; in data set [1] (303.15 K) it was 983 ± 3 kg/m3; in data set [1] (308.15 K), 977.6 ± 3 kg/m3; in data set [1] (313.15 K), 972.2 ± 3 kg/m3.
As to `CCC(=O)O` [propanoic acid] + C[N+]1(CC2CO2)CCCC1=O.O=C([O-])c1ccccc1O, the speed of sound in data set [2] (293.15 K) was 1166.3 ± 6.1 m/s; in data set [2] (298.15 K) it was 1148.1 ± 6.1 m/s; in data set [2] (303.15 K), 1129.7 ± 6.1 m/s; in data set [2] (308.15 K), 1111.3 ± 6.1 m/s; in data set [2] (313.15 K) it was 1092.8 ± 6.1 m/s. Moreover, the mass density in data set [2] (293.15 K) was 993.8 ± 3 kg/m3; in data set [2] (298.15 K), 988.4 ± 3 kg/m3; in data set [2] (303.15 K), 983 ± 3 kg/m3; in data set [2] (308.15 K), 977.6 ± 3 kg/m3; in data set [2] (313.15 K) it was 972.2 ± 3 kg/m3.

For the origin of these results see the NIST ThermoML archive (doi:10.1021/acs.jced.8b01204).
